Assays:
corneal ulcer = experiment: Eye drop given to a patient with corneal ulcer; type: in vivo; conditions: patient suffering from corneal ulcer, over a period of two weeks
Method: An eye drop containing compound 1 is administered to a patient suffering from corneal ulcer over a period of two weeks.

bacterial conjunctivitis = experiment: Eye drop given to a patient with bacterial conjunctivitis; type: in vivo; conditions: patient suffering from bacterial conjunctivitis, over a period of two weeks
Method: An eye drop containing compound 1 is administered to a patient suffering from bacterial conjunctivitis over a period of two weeks.

Q: How did the “bacterial infection after the complete treatment” value (corneal ulcer) turn out when `COc1c(N2CCN[C@H](C)C2)c(F)cc2c(=O)c(C(=O)OC(C)C(=O)Oc3cccc4c3C(=O)C3=C(O)C5(O)C(=O)C(C(N)=O)=C(O)C(N(C)C)C5CC3C4(C)O)cn(C3CC3)c12` (stereo partly shown) [Compound 1] was run?
A: eliminated

Q: And the “symptoms after the complete treatment” value (corneal ulcer)?
A: relief of symptoms is experienced

Q: What about the “bacterial infection after the complete treatment” value (bacterial conjunctivitis) of the same molecule?
A: eliminated

Q: And the “symptoms after the complete treatment” value (bacterial conjunctivitis)?
A: relief of symptoms is experienced

From patent publication US20060105941A1, “Mixed antibiotic codrugs” (ALLERGAN, INC., priority 2004, published 2006)
